Measured values reported in PubChem BioAssay (NCI).
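The concentration for 50% growth inhibition is given as GI50. Definition used: TGI = concentration required for complete inhibition of growth.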

Columns and labels:
Experiment in all cases: growth of human tumour cells (NCI), 384-well format
NCI-H522 lung = system: NCI-H522 lung
HS 578T breast = system: HS 578T breast
UACC-62 melanoma = system: UACC-62 melanoma
MDA-MB-231 breast = system: MDA-MB-231 breast
MDA-MB-435 melanoma = system: MDA-MB-435 melanoma
NCI-H23 lung = system: NCI-H23 lung
NCI-H226 lung = system: NCI-H226 lung
MCF7 breast = system: MCF7 breast
NCI-H460 NSCLC = system: NCI-H460 NSCLC
RXF 393 renal = system: RXF 393 renal
U251 glioblastoma = system: U251 glioblastoma
TK-10 renal = system: TK-10 renal
SK-OV-3 ovarian = system: SK-OV-3 ovarian
HOP-62 NSCLC = system: HOP-62 NSCLC
HL-60(TB) leukemia = system: HL-60(TB) leukemia
MALME-3M melanoma = system: MALME-3M melanoma
HOP-92 NSCLC = system: HOP-92 NSCLC
A549 NSCLC = system: A549 NSCLC
DU-145 prostate = system: DU-145 prostate
KM12 colon = system: KM12 colon
UACC-257 melanoma = system: UACC-257 melanoma
HCT-116 colon = system: HCT-116 colon
HCT-15 colon = system: HCT-15 colon
COLO 205 colon = system: COLO 205 colon
M14 melanoma = system: M14 melanoma
OVCAR-5 ovarian = system: OVCAR-5 ovarian
T-47D breast = system: T-47D breast
NCI-H322M lung = system: NCI-H322M lung
CAKI-1 renal = system: CAKI-1 renal
MOLT-4 leukemia = system: MOLT-4 leukemia
SN12C renal = system: SN12C renal
SF-268 CNS = system: SF-268 CNS
SK-MEL-2 melanoma = system: SK-MEL-2 melanoma
SNB-75 CNS = system: SNB-75 CNS
SF-295 CNS = system: SF-295 CNS
SF-539 CNS = system: SF-539 CNS
786-0 renal = system: 786-0 renal
OVCAR-3 ovarian = system: OVCAR-3 ovarian
BT-549 breast = system: BT-549 breast
SK-MEL-28 melanoma = system: SK-MEL-28 melanoma
HT29 colon = system: HT29 colon
K-562 leukemia = system: K-562 leukemia
IGROV1 ovarian = system: IGROV1 ovarian
PC-3 prostate = system: PC-3 prostate
SNB-19 CNS = system: SNB-19 CNS
SW-620 colon = system: SW-620 colon
SR leukemia = system: SR leukemia
EKVX NSCLC = system: EKVX NSCLC
OVCAR-8 ovarian = system: OVCAR-8 ovarian
MDA-MB-468 breast = system: MDA-MB-468 breast
OVCAR-4 ovarian = system: OVCAR-4 ovarian
UO-31 renal = system: UO-31 renal
SK-MEL-5 melanoma = system: SK-MEL-5 melanoma
A498 renal = system: A498 renal
ACHN renal = system: ACHN renal

With `C[C@@H](N)COc1ccc(-c2cnc3ccc(N[C@H](C)c4cccc(F)c4)nn23)cc1` the GI50 (NCI-H522 lung) was 1160 nM, the TGI (NCI-H522 lung) was 2390 nM and the GI50 (HS 578T breast) was 1470 nM. For the same compound, the TGI (HS 578T breast) was 2800 nM, the GI50 (UACC-62 melanoma) was 1720 nM and the TGI (UACC-62 melanoma) was 3100 nM. For the same compound, the GI50 (MDA-MB-231 breast) was 1420 nM, the TGI (MDA-MB-231 breast) was 2760 nM and the GI50 (MDA-MB-435 melanoma) was 1440 nM. The TGI (MDA-MB-435 melanoma) was 2760 nM, the GI50 (NCI-H23 lung) was 1540 nM and the TGI (NCI-H23 lung) was 3150 nM. It also gave a GI50 (NCI-H226 lung) of 1430 nM, a TGI (NCI-H226 lung) of 2830 nM and a GI50 (MCF7 breast) of 1140 nM. For the same compound, the TGI (MCF7 breast) was 2370 nM, the TGI (NCI-H460 NSCLC) was 1440 nM and the GI50 (RXF 393 renal) was 1170 nM. For the same compound, the TGI (RXF 393 renal) was 2390 nM, the GI50 (U251 glioblastoma) was 1600 nM and the TGI (U251 glioblastoma) was 2960 nM. It also gave a GI50 (TK-10 renal) of 1520 nM, a TGI (TK-10 renal) of 2900 nM and a GI50 (SK-OV-3 ovarian) of 1470 nM. It also gave a TGI (SK-OV-3 ovarian) of 2850 nM, a GI50 (HOP-62 NSCLC) of 1730 nM and a TGI (HOP-62 NSCLC) of 3160 nM. It also gave a GI50 (HL-60(TB) leukemia) of 1070 nM, a TGI (HL-60(TB) leukemia) of 2270 nM and a GI50 (MALME-3M melanoma) of 1680 nM. For the same compound, the TGI (MALME-3M melanoma) was 3060 nM, the GI50 (HOP-92 NSCLC) was 1510 nM and the TGI (HOP-92 NSCLC) was 2850 nM. The GI50 (A549 NSCLC) was 1560 nM, the TGI (A549 NSCLC) was 2940 nM and the GI50 (DU-145 prostate) was 1530 nM. The TGI (DU-145 prostate) was 2960 nM, the GI50 (KM12 colon) was 1600 nM and the TGI (KM12 colon) was 3000 nM. It also gave a GI50 (UACC-257 melanoma) of 1380 nM, a TGI (UACC-257 melanoma) of 2690 nM and a GI50 (HCT-116 colon) of 1490 nM. For the same compound, the TGI (HCT-116 colon) was 2860 nM, the GI50 (HCT-15 colon) was 1630 nM and the TGI (HCT-15 colon) was 3040 nM. For the same compound, the GI50 (COLO 205 colon) was 1620 nM, the TGI (COLO 205 colon) was 3010 nM and the GI50 (M14 melanoma) was 1730 nM. The TGI (M14 melanoma) was 3110 nM, the GI50 (OVCAR-5 ovarian) was 1250 nM and the TGI (OVCAR-5 ovarian) was 2610 nM. For the same compound, the GI50 (T-47D breast) was 1350 nM, the TGI (T-47D breast) was 2660 nM and the GI50 (NCI-H322M lung) was 2180 nM. The TGI (NCI-H322M lung) was 4100 nM, the GI50 (CAKI-1 renal) was 1680 nM and the TGI (CAKI-1 renal) was 3050 nM. For the same compound, the GI50 (MOLT-4 leukemia) was 1130 nM, the TGI (MOLT-4 leukemia) was 2350 nM and the GI50 (SN12C renal) was 1560 nM. The TGI (SN12C renal) was 2910 nM, the GI50 (SF-268 CNS) was 1590 nM and the TGI (SF-268 CNS) was 2960 nM. For the same compound, the GI50 (SK-MEL-2 melanoma) was 1270 nM, the TGI (SK-MEL-2 melanoma) was 2540 nM and the GI50 (SNB-75 CNS) was 1590 nM. The TGI (SNB-75 CNS) was 2960 nM, the GI50 (SF-295 CNS) was 1640 nM and the TGI (SF-295 CNS) was 3020 nM. For the same compound, the GI50 (SF-539 CNS) was 1420 nM, the TGI (SF-539 CNS) was 2740 nM and the GI50 ([…]-0 renal) was 1550 nM. It also gave a TGI (786-0 renal) of 2900 nM, a GI50 (OVCAR-3 ovarian) of 1620 nM and a TGI (OVCAR-3 ovarian) of 3160 nM. The GI50 (BT-549 breast) was 1370 nM, the TGI (BT-549 breast) was 2660 nM and the GI50 (SK-MEL-28 melanoma) was 1630 nM. It also gave a TGI (SK-MEL-28 melanoma) of 3010 nM, a GI50 (HT29 colon) of 1300 nM and a TGI (HT29 colon) of 2590 nM. It also gave a GI50 (K-562 leukemia) of 1110 nM, a TGI (K-562 leukemia) of 2360 nM and a GI50 (IGROV1 ovarian) of 1620 nM. For the same compound, the TGI (IGROV1 ovarian) was 3050 nM, the GI50 (PC-3 prostate) was 1460 nM and the TGI (PC-3 prostate) was 2910 nM. For the same compound, the GI50 (SNB-19 CNS) was 2060 nM, the TGI (SNB-19 CNS) was 4040 nM and the GI50 (SW-620 colon) was 1430 nM. For the same compound, the TGI (SW-620 colon) was 2780 nM, the GI50 (SR leukemia) was 34.5 nM and the TGI (SR leukemia) was 125 nM. It also gave a GI50 (EKVX NSCLC) of 1020 nM, a TGI (EKVX NSCLC) of 2220 nM and a GI50 (OVCAR-8 ovarian) of 1600 nM. It also gave a TGI (OVCAR-8 ovarian) of 2970 nM, a GI50 (MDA-MB-468 breast) of 1000 nM and a TGI (MDA-MB-468 breast) of 2170 nM. It also gave a GI50 (OVCAR-4 ovarian) of 1490 nM, a TGI (OVCAR-4 ovarian) of 3240 nM and a GI50 (UO-31 renal) of 1790 nM. For the same compound, the TGI (UO-31 renal) was 3190 nM, the GI50 (SK-MEL-5 melanoma) was 1030 nM and the TGI (SK-MEL-5 melanoma) was 2220 nM. It also gave a GI50 (A498 renal) of 1590 nM, a TGI (A498 renal) of 2960 nM and a GI50 (ACHN renal) of 1570 nM. For the same compound, the TGI (ACHN renal) was 2940 nM.
